ChEMBL document CHEMBL5500399, “Design, Synthesis, and Biological Evaluation of 1,2,4-Oxadiazole Derivatives Containing an Aryl Carboxylic Acid Moiety as Potent Sarbecovirus Papain-like Protease Inhibitors” (J Med Chem, 2024)

Columns and labels:
SARS-CoV-2 [1] = test: microbe, parasite or virus in culture; details: Severe acute respiratory syndrome coronavirus 2, 2019-nCoV, Vero C1008
SARS-CoV-2 [2] = test: microbe, parasite or virus in culture; details: Severe acute respiratory syndrome coronavirus 2, Omicron BA.1, Vero C1008

Row | SMILES | EC50 (SARS-CoV-2 [1]) [µM] | EC50 (SARS-CoV-2 [2]) [µM]
1 | CC(c1nc(-c2ccc(-c3ccc(C(=O)O)s3)cc2)no1)c1cccc2ccccc12 (centres undefined) | 5.4 | 25.2
2 | Cc1ccc(-c2noc(C(C)c3ccc(-c4ccccc4)c(F)c3)n2)cc1NCc1ccc(C(=O)O)s1 (racemic) | 4.3 | 79.8
